# Test results reported in US20240366809A1, “INHIBITOR OF PROSTATE SPECIFIC MEMBRANE ANTIGEN AND PHARMACEUTICAL USE THEREOF” (TIANJIN HENGRUI MEDICINE CO., LTD., priority 2021, published 2024).
# “And” between values parts separate entries of the source, which are not always exact repeats. Equal entries are not always repeated.
# What was measured:
# LnCaP tumor = assay: Biodistribution of 68Ga-labeled compounds in LnCaP tumor-bearing mice; format: in vivo
# Description: After single tail-vein injections into mice, the in-vivo distributions of ^68Ga-labeled compound v (Example 9) and compound x (Example 11) in the positive LnCaP tumor-bearing mice were observed.
# At 2 h after the injection, a total of 3 animals were sacrificed by cervical dislocation, and tissue samples were collected, including samples of the blood, the heart, the lungs, the liver, the spleen, the kidneys, the stomach, the intestine, the bones, the flesh, the brain, the salivary gland, the large intestine, the pancreas, and the tumor. The net weight of the tissues was measured first, and the radioactivity counts of the collected tissues were then measured using a γ-counter. The distributions of the labeled compounds in the different tissues and organs of the mice were measured. Meanwhile, a test sample was accurately diluted 100-fold, and 0.1 mL of the dilution was added to a counting tube and used as standard 1% ID (i.e., one percent of the injected dose). The radioactivity counts of the 1% ID standard and the biological samples were measured simultaneously on a γ-counter. The biodistribution data were expressed as the percentage of the radioactivity counts per gram of tissue or organ to the total injected dose (radioactivity counts) (% ID/g).
# [1] = Pharmacokinetics in blood of normal mice after single tail-vein injection; format: in vivo; settings: for Blood % ID/g: normal mice, individual animals 1-4
# Description: Through single tail-vein injections into mice, the pharmacokinetics of ^68Ga-v (Example 9) and PSMA-617 in blood was studied.
# Each mouse was dosed at 50 μCi/100 μL, and blood samples were taken from the orbit 0.083, 0.25, 0.5, 1, 2, and 4 h post-dose (4 animals per time point). The blood samples were collected in pre-weighed sample tubes. The tubes were weighed and the weight of the blood samples was recorded. Then radioactivity counting was performed using a γ-counter. Meanwhile, a test sample was accurately diluted 100-fold, and 0.1 mL of the dilution was added to a counting tube and used as standard 1% ID (i.e., one percent of the injected dose). The radioactivity counts of the 1% ID standard and the biological samples were measured simultaneously on a γ-counter. The data on blood were expressed as the percentage of the radioactivity counts per gram of blood to the total injected dose (radioactivity counts) (% ID/g). Pharmacokinetic parameters were calculated from blood drug concentration data.
# human organs = assay: Absorbed doses of radiation, estimates for human organs (OLINDA software)
# Description: The AUC of drug metabolisms was calculated from the biodistribution (Bio-D) data and imported into the OLINDA software to generate doses of radiation absorbed by all the organs.
# [2] = 2 h after injection, LnCaP tumor-bearing mice
compound,measurement,setting,value
O=C([O-])CN1CCN(CC(=O)[O-])CCN(CC(=O)N2CCO[C@]3(CC[C@H](C(=O)N[C@@H](Cc4ccc5ccccc5c4)C(=O)NCCCC[C@H](NC(=O)N[C@@H](CCC(=O)O)C(=O)O)C(=O)O)CC3)C2)CCN(CC(=O)[O-])CC1.[68Ga+3] [^68Ga-v],targeting effect on the LnCap tumor,LnCaP tumor; [2],good targeting effect on the LnCap tumor
same,"tumor uptake, comparison in words",LnCaP tumor; [2],better than ^68Ga-x (Example 11)'s
same,uptake values in the other tissues,"LnCaP tumor; 2 h after injection, tissues other than tumor, kidneys, liver, lung, spleen",very low
same,uptake value in the LnCap tumor,"LnCaP tumor; 2 h after single tail-vein injection, LnCaP tumor-bearing mice",~10 Id %/g
same,time estimated using 5 effective half-lives,[1]; 5 effective half-lives,2.27 h
same,Blood % ID/g,[1]; 0.083 h post-dose,5.89 % ID/g and 4.98 % ID/g and 5.26 % ID/g and 4.11 % ID/g
same,content of the radioactive substance in the blood,"[1]; 0.25 h after the injections, mean of n=4",1.25±0.22 % ID/g
same,Blood % ID/g,[1]; 0.25 h post-dose,1.33 % ID/g and 1.11 % ID/g and 1.52 % ID/g and 1.03 % ID/g
same,Blood % ID/g,[1]; 0.5 h post-dose,1.15 % ID/g and 0.52 % ID/g and 0.79 % ID/g and 0.99 % ID/g
same,Blood % ID/g,[1]; 1 h post-dose,0.33 % ID/g and 0.19 % ID/g (2×) and 0.16 % ID/g
same,Blood % ID/g,[1]; 2 h post-dose,0.07 % ID/g and 0.13 % ID/g and 0.10 % ID/g and 0.11 % ID/g
same,Blood % ID/g,[1]; 4 h post-dose,0.06 % ID/g and 0.02 % ID/g and 0.10 % ID/g and 0.08 % ID/g
same,effective half-life Te,[1]; according to calculations,27 min
same,elimination phase half-life,[1]; blood of mice,45.5 min
same,half-life in the blood,[1]; blood of normal mice,7.8 min
same,AUCINF_obs,"[1]; blood of normal mice, 0-4 h",1.66 ± 0.24 h* % ID/g
same,AUClast,"[1]; blood of normal mice, 0-4 h",1.67 ± 0.26 h* % ID/g
same,Cl_obs,"[1]; blood of normal mice, 0-4 h",12.17 ± 1.77 μCi/h* % ID/g
same,Cmax,"[1]; blood of normal mice, 0-4 h",5.06 ± 0.74 % ID/g
same,MRTlast,"[1]; blood of normal mice, 0-4 h",23.4 ± 1.2 min
same,Vz_obs,"[1]; blood of normal mice, 0-4 h",4.97 ± 1.09 μCi/% ID/g
same,t1/2,"[1]; blood of normal mice, 0-4 h",7.8 min
same,t1/2,"[1]; blood of normal mice, 0-4 h, listed as 68Ga-V",7.8 ± 2.4 min
same,time after dosing at which substantially metabolized,[1]; estimated as 5 times the half-life,3.9 h
same,"absorbed dose of radiation, comparison with the labeled PSMA-617 in words",human organs; from Table 5,half of that resulting from ^68Ga-PSMA-617
same,"radiation dose estimate, Adrenals",human organs; human organ: Adrenals,8.50E−03 mSv/MBq
same,"radiation dose estimate, Brain",human organs; human organ: Brain,3.99E−02 mSv/MBq
same,"radiation dose estimate, Esophagus",human organs; human organ: Esophagus,3.77E−03 mSv/MBq
same,"radiation dose estimate, Eyes",human organs; human organ: Eyes,1.84E−03 mSv/MBq
same,"radiation dose estimate, Gallbladder Wall",human organs; human organ: Gallbladder Wall,5.52E−03 mSv/MBq
same,"radiation dose estimate, Heart Wall",human organs; human organ: Heart Wall,1.62E−02 mSv/MBq
same,"radiation dose estimate, Kidneys",human organs; human organ: Kidneys,3.54E−02 mSv/MBq
same,"radiation dose estimate, Left colon",human organs; human organ: Left colon,6.87E−03 mSv/MBq
same,"radiation dose estimate, Liver",human organs; human organ: Liver,2.50E−02 mSv/MBq
same,"radiation dose estimate, Lungs",human organs; human organ: Lungs,1.05E−02 mSv/MBq
same,"radiation dose estimate, Osteogenic Cells",human organs; human organ: Osteogenic Cells,4.65E−03 mSv/MBq
same,"radiation dose estimate, Pancreas",human organs; human organ: Pancreas,9.51E−03 mSv/MBq
same,"radiation dose estimate, Prostate",human organs; human organ: Prostate,3.77E−03 mSv/MBq
same,"radiation dose estimate, Rectum",human organs; human organ: Rectum,1.99E−01 mSv/MBq
same,"radiation dose estimate, Red Marrow",human organs; human organ: Red Marrow,2.12E−03 mSv/MBq
same,"radiation dose estimate, Right colon",human organs; human organ: Right colon,3.43E−03 mSv/MBq
same,"radiation dose estimate, Salivary Glands",human organs; human organ: Salivary Glands,1.81E−03 mSv/MBq
same,"radiation dose estimate, Small Intestine",human organs; human organ: Small Intestine,1.31E−01 mSv/MBq
same,"radiation dose estimate, Spleen",human organs; human organ: Spleen,5.13E−02 mSv/MBq
same,"radiation dose estimate, Stomach Wall",human organs; human organ: Stomach Wall,8.54E−02 mSv/MBq
same,"radiation dose estimate, Testes",human organs; human organ: Testes,3.51E−04 mSv/MBq
same,"radiation dose estimate, Thymus",human organs; human organ: Thymus,1.99E−03 mSv/MBq
same,"radiation dose estimate, Thyroid",human organs; human organ: Thyroid,9.11E−04 mSv/MBq
same,"radiation dose estimate, Urinary Bladder Wall",human organs; human organ: Urinary Bladder Wall,2.27E−03 mSv/MBq
same,"radiation dose estimate, Effective Dose",human organs; human: Effective Dose,2.10E−02 mSv/MBq
same,"radiation dose estimate, Total Body",human organs; human: Total Body,0.496E−02 mSv/MBq
